The text below walks through data of US8242174B2 (priority 2007, dated 2012).

The test has as its target Lethal factor protease (Bacillus anthracis, UniProt P15917). Kind of test: biochemical.

Lethal factor protease, sequence (P15917 34-809 limits assumed): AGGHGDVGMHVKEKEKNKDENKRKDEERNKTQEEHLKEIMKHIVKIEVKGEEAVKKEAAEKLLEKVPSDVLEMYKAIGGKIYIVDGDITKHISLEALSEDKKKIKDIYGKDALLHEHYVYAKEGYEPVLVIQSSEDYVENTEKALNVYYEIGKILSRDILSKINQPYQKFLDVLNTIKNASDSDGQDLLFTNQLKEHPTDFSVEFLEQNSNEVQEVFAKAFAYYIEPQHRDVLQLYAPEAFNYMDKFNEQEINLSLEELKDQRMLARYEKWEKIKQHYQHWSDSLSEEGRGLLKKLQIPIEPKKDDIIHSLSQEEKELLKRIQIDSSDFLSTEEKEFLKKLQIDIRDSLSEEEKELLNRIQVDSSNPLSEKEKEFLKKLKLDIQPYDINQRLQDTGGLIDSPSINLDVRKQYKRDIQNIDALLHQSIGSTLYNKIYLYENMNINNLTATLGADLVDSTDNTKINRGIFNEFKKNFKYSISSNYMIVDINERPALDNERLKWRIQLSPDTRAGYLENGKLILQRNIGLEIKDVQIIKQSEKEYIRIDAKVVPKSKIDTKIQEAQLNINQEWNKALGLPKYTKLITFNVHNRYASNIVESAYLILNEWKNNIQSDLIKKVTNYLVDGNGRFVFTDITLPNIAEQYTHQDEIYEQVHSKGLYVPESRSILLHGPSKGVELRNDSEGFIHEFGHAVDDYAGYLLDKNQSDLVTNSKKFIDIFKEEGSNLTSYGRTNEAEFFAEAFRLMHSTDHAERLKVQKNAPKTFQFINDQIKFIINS

By Ki is commonly meant the equilibrium dissociation constant of an inhibitor or competing ligand from its target. With `Cc1cc(CNCCCC[C@@H](Nc2cc(C)c(F)c(C)c2)C(=O)NO)cc(C)c1F` [Compound 167759, 6-(4-Fluoro-3,5-dimethyl-benzylamino)-2-(4-fluoro-3,5-dimethyl-phenylamino)-hexanoic acid hydroxyamide], the Ki was determined as 0.07 µM.

In turn, `CCCCC(Nc1ccc(F)c(Cl)c1)C(=O)NO` (stereo not drawn) [Compound 167322, 2-(3-Chloro-4-fluoro-phenylamino)-hexanoic acid hydroxyamide] registered a Ki of 17.1 µM.

Molecule `CC(=O)NCCCC[C@@H](Nc1cc(C)c(F)c(C)c1)C(=O)NO` [Compound 167552, (R)-6-Acetylamino-2-(4-fluoro-3,5-dimethyl-phenylamino)-hexanoic acid hydroxyamide] gave a Ki of 2.53 µM.

On to `Cc1cc(N[C@H](CCCCNCc2ccc(F)cc2)C(=O)NO)ccc1F` [Compound 167945, (R)-6-(4-Fluoro-benzylamino)-2-(4-fluoro-3-methyl-phenylamino)-hexanoic acid hydroxyamide], for which the Ki was 0.03 µM. Compared with the last molecule, the Ki is about 84-fold lower.

The molecule `Cc1cc(N[C@H](C)C(=O)NO)ccc1F` [Compound 167392, (R)-2-(4-Fluoro-3-methyl-phenylamino)-N-hydroxy-propionamide] showed a Ki of 0.96 µM.

Molecule `Cc1cc(N[C@H](CCCCNCc2cc3ccccc3o2)C(=O)NO)ccc1F` [Compound 168166, (R)-6-[(Benzofuran-2-ylmethyl)-amino]-2-(4-fluoro-3-methyl-phenylamino)-hexanoic acid hydroxyamide] had a Ki of 0.18 µM. This Ki lies about 5.3-fold lower than the previous one.

As for `Cc1cc(N[C@H](CCCCNC(=O)c2ccccc2)C(=O)NO)cc(C)c1F` [Compound 167587, (R)—N-[5-(4-Fluoro-3,5-dimethyl-phenylamino)-5-hydroxycarbamoyl-pentyl]-benzamide], the Ki came to 0.97 µM.

As for `Cc1cc(CN(CCCC[C@@H](Nc2cc(C)c(F)c(C)c2)C(=O)NO)Cc2ccc(F)c(C)c2)ccc1F` [Compound 167933, (R)-6-[Bis-(4-fluoro-3-methyl-benzyl)-amino]-2-(4-fluoro-3,5-dimethyl-phenylamino)-hexanoic acid hydroxyamide], affinity was put at a Ki of 1.9 µM.

`CCCCC(Nc1cccc(F)c1)C(=O)NO` (stereo not drawn) [Compound 167277, 2-(3-Fluoro-phenylamino)-hexanoic acid hydroxyamide] returned a Ki of 134 µM. This Ki lies about 71-fold higher than the previous one.

`Cc1cc(N[C@H](CCCCNC(=O)Cc2ccccc2)C(=O)NO)cc(C)c1F` [Compound 167588, (R)-2-(4-Fluoro-3,5-dimethyl-phenylamino)-6-phenylacetylamino-hexanoic acid hydroxyamide]: the Ki amounted to 1.2 µM.

For the molecule `Cc1cc(N[C@H](CCCCNC(=O)C(c2ccccc2)c2ccccc2)C(=O)NO)cc(C)c1F` [Compound 167610, (R)-6-Diphenylacetylamino-2-(4-fluoro-3,5-dimethyl-phenylamino)-hexanoic acid hydroxyamide], the affinity, expressed as Ki, was 1.34 µM.

The molecule `Cc1cc(NC(C)C(=O)NO)cc(C)c1F` (stereo not drawn) [Compound 167486, 2-(4-Fluoro-3,5-dimethyl-phenylamino)-N-hydroxy-propionamide] came in with a Ki of 0.69 µM. This Ki lies about 1.9-fold lower than the previous one.

`Cc1cc(N[C@H](CCCCNCCc2ccccc2)C(=O)NO)ccc1F` [Compound 167979, (R)-2-(4-Fluoro-3-methyl-phenylamino)-6-phenethylamino-hexanoic acid hydroxyamide] showed a Ki of 0.21 µM.

Take `Cc1cc(N[C@H](CCCCN)C(=O)NO)cc(C)c1F` [Compound 167517, (R)-6-Amino-2-(4-fluoro-3,5-dimethyl-phenylamino)-hexanoic acid hydroxyamide]: the affinity, expressed as Ki, was 0.25 µM. This Ki and that of the molecule before are within 1.5-fold of each other.

On to `Cc1cc(N[C@H](COC(C)(C)C)C(=O)NO)cc(C)c1F` [Compound 167484, (R)-3-tert-Butoxy-2-(4-fluoro-3,5-dimethyl-phenylamino)-N-hydroxy-propionamide], for which affinity was put at a Ki of 0.45 µM.

With `CCCCC(Nc1ccccc1F)C(=O)NO` (stereo not drawn) [Compound 167291, 2-(2-Fluoro-phenylamino)-hexanoic acid hydroxyamide], the inhibition constant Ki is over 300 µM.

`CCCCC(Nc1ccc(OC)c(C)c1)C(=O)NO` (stereo not drawn) [Compound 167324, 2-(4-Methoxy-3-methyl-phenylamino)-hexanoic acid hydroxyamide] had a Ki of 19.3 µM.

For the molecule `CCCCC(Nc1ccc(C)c(F)c1C)C(=O)NO` (stereo not drawn) [Compound 167455, 2-(3-Fluoro-2,4-dimethyl-phenylamino)-hexanoic acid hydroxyamide], the affinity corresponds to a Ki of 88.1 µM.

On to `Cc1cc(N[C@H](CCCCNC(=O)CCC(=O)O)C(=O)NO)cc(C)c1F` [Compound 167620, (R)—N-[5-(4-Fluoro-3,5-dimethyl-phenylamino)-5-hydroxycarbamoyl-pentyl]-succinamic acid], for which the affinity corresponds to a Ki of 3.5 µM.

Take `Cc1cc(N[C@H](CCCCNC(=O)CCc2ccccc2)C(=O)NO)ccc1F` [Compound 167993, (R)-2-(4-Fluoro-3-methyl-phenylamino)-6-(3-phenyl-propionylamino)-hexanoic acid hydroxyamide]: the inhibition constant (Ki) was determined as 0.88 µM. This Ki lies about 4-fold lower than the previous one.

In turn, `Cc1cc(N[C@H](CCCCN(Cc2ccccc2)Cc2ccccc2)C(=O)NO)cc(C)c1F` [Compound 167738, (R)-6-Dibenzylamino-2-(4-fluoro-3,5-dimethyl-phenylamino)-hexanoic acid hydroxyamide] had an inhibition constant Ki of 0.43 µM. Against the preceding molecule, the Ki is about 2-fold lower.

In turn, `Cc1cc(N[C@H](CCCCNS(=O)(=O)c2cc(C)c(F)c(C)c2)C(=O)NO)cc(C)c1F` [Compound 167530, (R)-6-(4-Fluoro-3,5-dimethyl-benzenesulfonylamino)-2-(4-fluoro-3,5-dimethyl-phenylamino)-hexanoic acid hydroxyamide] yielded a Ki of 0.37 µM.

The molecule `Cc1cc(N[C@H](CCCCNS(=O)(=O)c2ccccc2)C(=O)NO)cc(C)c1F` [Compound 167615, (R)-6-Benzenesulfonylamino-2-(4-fluoro-3,5-dimethyl-phenylamino)-hexanoic acid hydroxyamide] showed a Ki of 0.84 µM.

`Cc1cc(N[C@H](CCCCNC(=O)Cc2cccc(Oc3ccccc3)c2)C(=O)NO)cc(C)c1F` [Compound 167611, (R)-2-(4-Fluoro-3,5-dimethyl-phenylamino)-6-[2-(3-phenoxy-phenyl)-acetylamino]-hexanoic acid hydroxyamide] registered a Ki of 0.74 µM. This Ki and that of the molecule before are within 1.5-fold of each other.

Regarding `Cc1cc(N[C@H](CCCCNC(C)c2ccc(F)cc2)C(=O)NO)ccc1F` (stereo partly drawn) [Compound 168010, (R)-2-(4-Fluoro-3-methyl-phenylamino)-6-[1-(4-fluoro-phenyl)-ethylamino]-hexanoic acid hydroxyamide], the inhibition constant (Ki) was found to be 0.07 µM. This Ki lies about 11-fold lower than the previous one.

`CNc1ccc(S(=O)(=O)NCCCC[C@@H](Nc2cc(C)c(F)c(C)c2)C(=O)NO)cc1` [Compound 167657, (R)-2-(4-Fluoro-3,5-dimethyl-phenylamino)-6-(4-methylamino-benzenesulfonylamino)-hexanoic acid hydroxyamide]: the affinity corresponds to a Ki of 0.41 µM.

Molecule `Cc1cc(NCC(=O)NO)ccc1F` [Compound 166986, 2-(4-Fluoro-3-methyl-phenylamino)-N-hydroxy-acetamide] showed a Ki of 7.6 µM.
